Measured values as given in EP0165492B1, “Process for manufacturing preparations promoting wound healing, and such preparations” (BERLIN-CHEMIE Aktiengesellschaft, priority 1984, dated 1992).

Experiments:
[1] = tested on: Kapillaren; details: conclusion from morphometry (Tables 11 and 12); controls = 100 %
Excerpt: Mit Hilfe des Punktzählverfahrens (BUNTROCK et al: Exper. Pathol. 21 (1982) 62-67) wurden die prozentualen Volumenanteile der Kapillaren (VVCAP), unterteilt nach Endothelzellen (VVEC), Endothelzellkerne (VVNEC), Endothelsellzytoplasma (VVCYT) einerseits und Kapillarlumen (VVCAPL) andererseits bestimmt. Die Kontrollen wurden wiederum mit 100 % festgelegt.
Die Ergebnisse sind in der Tabelle 12 dargestellt.

[2] = tested on: Endothelzellen; details: versus rats treated with isotonic saline (= 100 %); treatment as in Example 1
Protocol: Unter die Rückenhaut von 2 Monate alten Ratten mit einem Körpergewicht von 220 bis 270 g werden Polyvinylringe mit einem Basisdurchmesser von 19 mm unter sterilen Kautelen implantiert (Test nach RUDAS, modifiziert nach BECK, WIEGERS-HAUSEN und JUNG, Acta bio. med. Germ. 13, (1964)).
Der Ring liegt auf der Fascis der Rückenmuskulatur. Am Operationstag werden je 1,0 ml sterile, isotone Kochsalzlösung (Kontrolle) bzw. die gleiche Menge an Kochsalzlösung mit den darin enthaltenen Wirkstoffen appliziert. Die Wunde der Rückenhaut über dem Ring wird danach verschlossen. Am 2. bzw. am 2., 4. und 6. Tag post operationem (p. op.) erfolgen nochmalige Injektionen durch die Haut in den Ring, wobei jeweils 0,2 ml sterile, isotone Kochsalzlösung mit jeweils 20 % der am Operationstag gegebenen Wirkstoffmenge appliziert werden. Im Fall der Kontrolle erfolgt eine Injektion von 0,2 ml Kochsalzlösung ohne Wirkstoff.
Als Kontrolltiere dienten mit isotoner Kochsalzlösung behandelte Ratten, deren Zählwerte gleich 100 % gesetzt wurden. […] Das Vorgehen der Behandlung entspricht dem Beispiel 1.

[3] = tested on: durch Zahnextraktion entstandene Wunden; details: local application (Salbe, Lutschtabletten); cited from earlier work
[4] = tested on: experimentell gesetzte Wunden; details: intraperitoneal, 20 mg/kg Ratte; cited from earlier work

Row | Substance | Angiogenese fördernde Wirkung [1] | Anzahl der Endothelzellkerne der Kapillaren [2] | Wundheilung [3] | Wundheilung [4]
1 | N-4-Nitrobenzylocarbonyl-lysyl-Prolin-Hydrochlorid [Lys[Z(NO2)]-Pro·HCl] | Angiogenese fördernde Wirkung | signifikante Zunahme | – | –
2 | ß-Alanyl-L-Histidin [L-Carnosin] | – | – | günstig beeinflussen | günstig beeinflussen
